Source: US7799343B2, “Safer control of broadleaf weeds in turf with granular formulations of ALS inhibiting herbicides” (priority 2006, dated 2010)

Legend:
Format in all cases: in vivo
tall fescue = assay: Turf tolerance field study, tall fescue, Indiana 2004; conditions: 14 Days After Treatment, g ai/Ha: penoxsulam 35, imazaquin 104, bispyribac-sodium 75, trifloxysulfuron-sodium 9.2, metsulfuron-methyl 10.4; for Cover: 0 = bare ground, 100 = thick solid stand; for Color: 0 = brown to dead turf, 10 = lush green; for Injury: 0 = no visible injury, 10 = dead turf
Protocol: (§1) Turf tolerance studies were conducted in monoculture stands of perennial ryegrass and tall fescue. Replicated trials, containing a minimum of three replications and having individual plots ranging in size from 25 to 50 ft. sq (2.3 to 4.6 square meters), were initiated in the late spring when turf was actively growing. […] Natural rainfall and supplemental irrigation, fertilizer, fungicides and insecticides were used to maintain healthy turf throughout the study period. Turf tolerance evaluations were made weekly for 8 weeks after application. Evaluations compared treated and untreated plot areas and consisted of one or all of the following evaluations: 1) visual estimate of turf injury made on a 0 to 10 scale with 0 indicating no visible injury symptoms, 10 being dead turf and 3 or less being commercially acceptable; 2) visual estimate of turf color made on a 0 to 10 scale with 0 being brown to dead turf, 10 being a lush green turf of highest quality and 6.5 being commercially acceptable; 3) visual estimate of turf density made on a 0 to 100 scale with 0 being bare ground, 100 being a thick solid stand of highest quality and 90 percent density being commercially acceptable; 4) visual estimate of turf quality made on a 0 to 10 scale with 0 being brown to dead turf, 10 being a lush green turf of highest quality and 6.5 being commercially acceptable.

perennial ryegrass [1] = assay: Turf tolerance field study, perennial ryegrass, Indiana 2004; conditions: 21 Days After Treatment, g ai/Ha: penoxsulam 35, imazaquin 104, bispyribac-sodium 75, trifloxysulfuron-sodium 9.2, metsulfuron-methyl 10.4; for Cover: 0 = bare ground, 100 = thick solid stand; for Color: 0 = brown to dead turf, 10 = lush green; for Injury: 0 = no visible injury, 10 = dead turf
Protocol: as §1

perennial ryegrass [2] = assay: Perennial ryegrass turf quality field study, Pennsylvania 2004; conditions: perennial ryegrass, 0 = brown to dead turf, 10 = highest quality, g ai/Ha: penoxsulam 35, imazaquin 104, bispyribac-sodium 75, trifloxysulfuron-sodium 9.2, metsulfuron-methyl 10.4; for Turf Quality 4 DAA: 4 Days After Application; for Turf Quality 16 DAA: 16 Days After Application; for Turf Quality 36 DAA: 36 Days After Application
Protocol: as §1

[3] = test system: dandelion, Taraxacum officinale (TAROF); assay: Postemergent weed control field study, Pennsylvania 2004, TAROF; conditions: Granule formulation, g ai/Ha: penoxsulam 35, imazaquin 104, bispyribac-sodium 75, trifloxysulfuron-sodium 9.2, metsulfuron-methyl 10.4; for Percent Weed Control TAROF 29DAA: 29 Days After Application; for Percent Weed Control TAROF 56DAA: 56 Days After Application
Text: (§2) The ALS inhibiting herbicides are useful in controlling broadleaf weeds and sedges in turfgrass. They are particularly effective against most important weeds in this application, viz., white clover, Trifolium repens L. (TRFRE); buckhorn plantain, Plantago lanceolata L. (PLALA); dandelion, Taraxacum officinale (TAROF); broadleaf plantain, Plantago major L. (PLAMA); ground ivy, Glechoma hederacea L. (GLEHE); common lespedeza, Lespedeza striata (LESST); pennywort (dollarweed), Hydrocotyle spp (HYDSS); Virginia buttonweed, Diodia virginiana L. (DIQVI) English daisy, Bellis perennis L. (BELPE); annual bluegrass, Poa annua (POANN); and yellow nutsedge, Cypres esculentus L. (CYPES).
(§3) Field studies were conducted in established turfgrass sites containing a natural population of target broadleaf weeds. Replicated trials, containing a minimum of three replications and having individual plots ranging in size from 25 to 50 ft. sq (2.3 to 4.6 square meters), were initiated in the late spring when turf and weeds were actively growing. Granule treatments were uniformly applied to individual plots using a common hand-shaker method. Applications were made in the early morning when dew was present. Natural rainfall and supplemental irrigation were used to maintain healthy turf and active weed growth throughout the study period. Control of each weed species in the study site was made at approximately 2, 4 and 8 weeks after treatment. Control was determined visually by comparing treated and untreated weeds and scored on a 0 to 100 percent scale where 0 corresponds to no control and 100 corresponds to complete kill.

[4] = test system: white clover, Trifolium repens L. (TRFRE); assay: Postemergent weed control field study, Pennsylvania 2004, TRFRE; conditions: g ai/Ha: penoxsulam 35, imazaquin 104, bispyribac-sodium 75, trifloxysulfuron-sodium 9.2, metsulfuron-methyl 10.4; for Percent Weed Control TRFRE 29DAA: 29 Days After Application; for Percent Weed Control TRFRE 56DAA: 56 Days After Application
Text: as §2
as §3, with “Granule treatments were uniformly applied to individual plots using a common hand-shaker method.” left out

[5] = test system: buckhorn plantain, Plantago lanceolata L. (PLALA); assay: Postemergent weed control field study, Pennsylvania 2004, PLALA; conditions: g ai/Ha: penoxsulam 35, imazaquin 104, bispyribac-sodium 75, trifloxysulfuron-sodium 9.2, metsulfuron-methyl 10.4; for Percent Weed Control PLALA 29DAA: 29 Days After Application; for Percent Weed Control PLALA 56DAA: 56 Days After Application
Text: as §2
as §3, with “Granule treatments were uniformly applied to individual plots using a common hand-shaker method.” left out

[6] = test system: annual bluegrass, Poa annua (POANN); assay: Postemergent weed control field study, Pennsylvania 2004, POANN; conditions: g ai/Ha: penoxsulam 35, imazaquin 104, bispyribac-sodium 75, trifloxysulfuron-sodium 9.2, metsulfuron-methyl 10.4; for Percent Weed Control POANN 29DAA: 29 Days After Application; for Percent Weed Control POANN 56DAA: 56 Days After Application
Text: as §2, §3

[7] = test system: dandelion, Taraxacum officinale (TAROF); assay: Postemergent weed control field study, Pennsylvania 2004, TAROF; conditions: Liquid formulation, g ai/Ha: penoxsulam 35, imazaquin 104, bispyribac-sodium 75, trifloxysulfuron-sodium 9.2, metsulfuron-methyl 10.4; for Percent Weed Control TAROF 29DAA: 29 Days After Application; for Percent Weed Control TAROF 56DAA: 56 Days After Application

Compound | Cover (tall fescue; Granule formulation) | Color (tall fescue; Granule formulation) | Injury (tall fescue; Granule formulation) | Cover (tall fescue; Liquid formulation) | Color (tall fescue; Liquid formulation) | Injury (tall fescue; Liquid formulation) | Cover (perennial ryegrass [1]; Granule formulation) | Color (perennial ryegrass [1]; Granule formulation) | Injury (perennial ryegrass [1]; Granule formulation) | Cover (perennial ryegrass [1]; Liquid formulation) | Color (perennial ryegrass [1]; Liquid formulation) | Injury (perennial ryegrass [1]; Liquid formulation) | Turf Quality 4 DAA (perennial ryegrass [2]; Granule formulation) | Turf Quality 16 DAA (perennial ryegrass [2]; Granule formulation) | Turf Quality 36 DAA (perennial ryegrass [2]; Granule formulation) | Turf Quality 4 DAA (perennial ryegrass [2]; Liquid formulation) | Turf Quality 16 DAA (perennial ryegrass [2]; Liquid formulation) | Turf Quality 36 DAA (perennial ryegrass [2]; Liquid formulation) | Percent Weed Control TAROF 29DAA [3] | Percent Weed Control TAROF 56DAA [3] | also measured
COc1cc(OC)nc(Oc2cccc(Oc3nc(OC)cc(OC)n3)c2C(=O)O)n1 [Bispyribac-sodium, bispyribac-sodium] | 100.0 0-100 Scale | 9.0 0-10 Scale | 0.0 0-10 Scale | 97.5 0-100 Scale | 8.8 0-10 Scale | 2.0 0-10 Scale | 100.0 0-100 Scale | 8.5 0-10 Scale | 1.0 0-10 Scale | 85.0 0-100 Scale | 6.5 0-10 Scale | 4.5 0-10 Scale | 8.7 0 to 10 scale | 7.3 0 to 10 scale | 10.0 0 to 10 scale | 8.0 0 to 10 scale | 5.7 0 to 10 scale | 10.0 0 to 10 scale | 45.0% | 23.3% | Percent Weed Control TRFRE 29DAA ([4]; Granule formulation): 36.1%; Percent Weed Control TRFRE 29DAA ([4]; Liquid formulation): 88.9%; Percent Weed Control TRFRE 56DAA ([4]; Liquid formulation): 55.6%; Percent Weed Control PLALA 29DAA ([5]; Granule formulation): 27.8%; Percent Weed Control PLALA 56DAA ([5]; Granule formulation): 27.8%; Percent Weed Control PLALA 29DAA ([5]; Liquid formulation): 75.6%; Percent Weed Control PLALA 56DAA ([5]; Liquid formulation): 57.8%; Percent Weed Control POANN 29DAA ([6]; Granule formulation): 40.0%; Percent Weed Control POANN 56DAA ([6]; Granule formulation): 28.9%; Percent Weed Control POANN 29DAA ([6]; Liquid formulation): 28.3%; Percent Weed Control POANN 56DAA ([6]; Liquid formulation): 23.3%; Percent Weed Control TAROF 29DAA [7]: 95.7%; Percent Weed Control TAROF 56DAA [7]: 57.1%
COc1cc(OC)nc(NC(=O)[N-]S(=O)(=O)c2ncccc2OCC(F)(F)F)n1.[Na+] [Trifloxysulfuron-sodium, trifloxysulfuron-sodium] | 70.0 0-100 Scale | 5.8 0-10 Scale | 5.8 0-10 Scale | 51.3 0-100 Scale | 3.8 0-10 Scale | 8.0 0-10 Scale | 87.5 0-100 Scale | 6.8 0-10 Scale | 5.3 0-10 Scale | 57.5 0-100 Scale | 4.0 0-10 Scale | 8.0 0-10 Scale | 9.3 0 to 10 scale | 4.3 0 to 10 scale | 8.3 0 to 10 scale | 7.7 0 to 10 scale | 2.7 0 to 10 scale | 1.3 0 to 10 scale | 80.6% | 40.0% | Percent Weed Control TRFRE 29DAA ([4]; Granule formulation): 80.0%; Percent Weed Control TRFRE 56DAA ([4]; Granule formulation): 56.7%; Percent Weed Control TRFRE 29DAA ([4]; Liquid formulation): 100.0%; Percent Weed Control TRFRE 56DAA ([4]; Liquid formulation): 100.0%; Percent Weed Control PLALA 29DAA ([5]; Granule formulation): 0.0%; Percent Weed Control PLALA 56DAA ([5]; Granule formulation): 11.1%; Percent Weed Control PLALA 29DAA ([5]; Liquid formulation): 0.0%; Percent Weed Control PLALA 56DAA ([5]; Liquid formulation): 33.3%; Percent Weed Control POANN 29DAA ([6]; Granule formulation): 34.5%; Percent Weed Control POANN 56DAA ([6]; Granule formulation): 39.9%; Percent Weed Control POANN 29DAA ([6]; Liquid formulation): 95.4%; Percent Weed Control POANN 56DAA ([6]; Liquid formulation): 77.2%; Percent Weed Control TAROF 29DAA [7]: 98.3%; Percent Weed Control TAROF 56DAA [7]: 100.0%
CC(C)C1(C)N=C(c2nc3ccccc3cc2C(=O)O)NC1=O (centres unmarked) [Imazaquin, imazaquin] | 100.0 0-100 Scale | 9.0 0-10 Scale | 0.5 0-10 Scale | 70.0 0-100 Scale | 5.3 0-10 Scale | 5.3 0-10 Scale | 98.8 0-100 Scale | 8.8 0-10 Scale | 1.8 0-10 Scale | 97.5 0-100 Scale | 8.3 0-10 Scale | 3.3 0-10 Scale | 10.0 0 to 10 scale | 3.0 0 to 10 scale | 3.3 0 to 10 scale | 7.7 0 to 10 scale | 3.3 0 to 10 scale | 7.7 0 to 10 scale | 13.9% | 17.8% | Percent Weed Control TRFRE 29DAA ([4]; Granule formulation): 0.0%; Percent Weed Control TRFRE 56DAA ([4]; Granule formulation): 23.3%; Percent Weed Control TRFRE 29DAA ([4]; Liquid formulation): 22.2%; Percent Weed Control TRFRE 56DAA ([4]; Liquid formulation): 11.1%; Percent Weed Control PLALA 29DAA ([5]; Granule formulation): 22.2%; Percent Weed Control PLALA 56DAA ([5]; Granule formulation): 41.1%; Percent Weed Control PLALA 29DAA ([5]; Liquid formulation): 16.7%; Percent Weed Control PLALA 56DAA ([5]; Liquid formulation): 8.3%; Percent Weed Control POANN 29DAA ([6]; Granule formulation): 31.4%; Percent Weed Control POANN 56DAA ([6]; Granule formulation): 18.1%; Percent Weed Control POANN 29DAA ([6]; Liquid formulation): 8.8%; Percent Weed Control POANN 56DAA ([6]; Liquid formulation): 26.2%; Percent Weed Control TAROF 29DAA [7]: 58.9%; Percent Weed Control TAROF 56DAA [7]: 11.1%
